# Laboratory results taken from US20120115845A1, “THERAPEUTIC AGENTS” (priority 2007, published 2012).
# Tests used:
# human GHS receptor [1] = biological target: T1, human GHS receptor (Homo sapiens, UniProt Q92847); experiment: h bind IC50 (binding assay, Table 1); conditions: human receptor; Table 1
# human GHS receptor [2] = biological target: T1, human GHS receptor; experiment: Ghrelin IP1 agonist assay (IP1 HTRF); format: cell-based; design: expressed in transfected cells; host or cells: HEK293s; conditions: for Emax: 2 h, agonist effect as % maximal effect of GHRP-6 (5 μM), read-out: h IP1 ag %; for EC50: HEK293s cells stably expressing human GHS receptor, 2 hours at 37° C., read-out: h IP1 ag EC50
# Procedure, shortened: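 Cells: HEK293s stably expressing human GHS receptor, in stimulation buffer containing 0.02% fatty acid free BSA.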
# T1 sequence (Q92847 whole entry): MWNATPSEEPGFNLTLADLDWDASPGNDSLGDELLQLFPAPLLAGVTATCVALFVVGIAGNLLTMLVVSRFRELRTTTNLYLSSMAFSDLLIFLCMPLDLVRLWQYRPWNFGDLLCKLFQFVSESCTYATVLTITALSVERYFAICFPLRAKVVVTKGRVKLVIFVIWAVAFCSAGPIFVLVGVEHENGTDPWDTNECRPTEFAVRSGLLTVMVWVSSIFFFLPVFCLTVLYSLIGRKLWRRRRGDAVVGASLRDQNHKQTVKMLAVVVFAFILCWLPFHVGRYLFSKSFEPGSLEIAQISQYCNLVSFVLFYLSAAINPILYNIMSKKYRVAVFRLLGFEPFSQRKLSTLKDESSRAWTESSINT
IC50 (human GHS receptor [1]),Emax (human GHS receptor [2]),EC50 (human GHS receptor [2]),SMILES
0.0193 µM,12.6%,0.0465 µM,"CNS(=O)(=O)c1ccc2nc(NC(=O)NC(=O)c3ccccc3Cl)sc2c1 [Example 230, 2-chloro-N-[[6-(methylsulfamoyl)-1,3-benzothiazol-2-yl]carbamoyl] benzamide]"
0.135 µM,54.5%,0.524 µM,"COc1ccc(-c2ccccc2C(=O)NC(=O)Nc2nc3ccc(S(C)(=O)=O)cc3s2)cc1 [Example 124, 2-(4-Methoxyphenyl)-N-[(6-methylsulfonylbenzothiazol-2-yl)carbamoyl]benzamide]"
0.0231 µM,0%,≥ 25 µM,"CS(=O)(=O)c1ccc2nc(NC(=O)NC(=O)c3cc(-n4cccc4)ccc3Cl)sc2c1 [Example 66, 2-Chloro-N-[(6-methylsulfonylbenzothiazol-2-yl)carbamoyl]-5-pyrrol-1-yl-benzamide]"
0.289 µM,42.5%,0.062 µM,"CC(C)N1CCCC(S(=O)(=O)c2ccc3nc(NC(=O)NC(=O)c4ccccc4Cl)sc3c2)C1 (stereo not drawn) [Example 140, 2-Chloro-N-[[6-[(1-propan-2-yl-3-piperidyl)sulfonyl]benzothiazol-2-yl]carbamoyl]benzamide]"
0.0283 µM,44.4%,0.00731 µM,"O=C(NC(=O)c1ccccc1Cl)Nc1nc2ccc(S(=O)(=O)[C@@H]3CCNC3)cc2s1 [Example 172, 2-Chloro-N-[[6-[(3R)-pyrrolidin-3-yl]sulfonylbenzothiazol-2-yl]carbamoyl]benzamide]"
0.0183 µM,61.2%,0.00591 µM,"CS(=O)(=O)c1ccc2nc(NC(=O)NC(=O)c3ccc(Cl)cc3Cl)sc2c1 [Example 179, 2,4-Dichloro-N-[(6-methylsulfonylbenzothiazol-2-yl)carbamoyl]benzamide]"
7.6 µM,5.84%,4.97 µM,"CS(=O)(=O)c1ccc2nc(NC(=O)NC(=O)c3cc(OC4CNC4)ccc3Cl)sc2c1 [Example 253, 5-(azetidin-3-yloxy)-2-chloro-N-(6-(methylsulfonyl)benzo[d]thiazol-2-ylcarbamoyl) benzamide]"
0.0087 µM,9.19%,0.0015 µM,"CCN(CC)CCCS(=O)(=O)c1ccc2nc(NC(=O)NC(=O)c3cc(-n4cccn4)ccc3Cl)sc2c1 [Example 98, 2-Chloro-N-(6-(3-(diethylamino)propylsulfonyl)benzothiazol-2-ylcarbamoyl)-5-(1H-pyrazol-1-yl)benzamide]"
2.06 µM,22.6%,19.7 µM,"CN1CCC(Oc2ccc(Cl)c(C(=O)NC(=O)Nc3nc4ccc(S(C)(=O)=O)cc4s3)c2)CC1 [Example 244, 2-chloro-5-(1-methylpiperidin-4-yloxy)-N-(6-(methylsulfonyl)benzo[d]thiazol-2-ylcarbamoyl) benzamide]"
0.0007 µM,0%,≥ 20 µM,"Cc1cc(C)n(-c2ccc(Cl)c(C(=O)NC(=O)Nc3nc4ccc(S(=O)(=O)CCCN5CCN(C)CC5)cc4s3)c2)n1 [Example 237, 2-chloro-5-(3,5-dimethyl-1H-pyrazol-1-yl)-N-(6-(3-(4-methylpiperazin-1-yl)propylsulfonyl)benzo[d]thiazol-2-ylcarbamoyl) benzamide]"
0.272 µM,8.23%,0.081 µM,"Cc1ccc(Cl)c(C(=O)NC(=O)Nc2nc3ccc(S(C)(=O)=O)cc3s2)c1 [Example 65, 2-Chloro-5-methyl-N-(6-(methylsulfonyl)benzothiazol-2-ylcarbamoyl)benzamide]"
8.08 µM,3.13%,4.9 µM,"CS(=O)(=O)c1ccc2nc(NC(=O)NC(=O)c3cc(OC4CCNC4)ccc3Cl)sc2c1 (stereo not drawn) [Example 249, 2-chloro-N-(6-(methylsulfonyl)benzo[d]thiazol-2-ylcarbamoyl) 5-(pyrrolidin-3-yloxy)benzamide]"
0.114 µM,22.8%,0.0329 µM,"Cc1ccc(Cl)c(C(=O)NC(=O)Nc2nc3ccc(S(C)(=O)=O)cc3s2)c1F [Example 195, 6-Chloro-2-fluoro-3-methyl-N-[(6-methylsulfonylbenzothiazol-2-yl)carbamoyl]benzamide]"
0.288 µM,31.1%,0.668 µM,"CCSc1ccccc1C(=O)NC(=O)Nc1nc2ccc(S(C)(=O)=O)cc2s1 [Example 130, 2-Ethylsulfanyl-N-[(6-methylsulfonylbenzothiazol-2-yl)carbamoyl]benzamide]"
0.0524 µM,23.8%,0.0513 µM,"COCCCS(=O)(=O)c1ccc2nc(NC(=O)NC(=O)c3ccccc3Cl)sc2c1 [Example 192, 2-Chloro-N-[[6-(3-methoxypropylsulfonyl)benzothiazol-2-yl]carbamoyl]benzamide]"
1.97 µM,18.2%,0.117 µM,"NS(=O)(=O)c1ccc2nc(NC(=O)NC(=O)c3ccccc3Cl)sc2c1 [Example 229, 2-chloro-N-[(6-sulfamoyl-1,3-benzothiazol-2-yl)carbamoyl] benzamide]"
0.0108 µM,74.3%,0.00223 µM,"O=C(NC(=O)c1ccccc1Cl)Nc1nc2ccc(S(=O)(=O)CCCNCC3CC3)cc2s1 [Example 151, 2-Chloro-N-[[6-[3-(cyclopropylmethylamino)propylsulfonyl]benzothiazol-2-yl]carbamoyl]benzamide]"
0.105 µM,56%,0.00618 µM,"CS(=O)(=O)c1ccc2nc(NC(=O)NC(=O)c3cc(Br)ccc3Cl)sc2c1 [Example 161, 5-Bromo-2-chloro-N-[(6-methylsulfonylbenzothiazol-2-yl)carbamoyl]benzamide]"
